The values that follow come from ChEMBL document CHEMBL1132808, “Solid-phase synthesis of di- and tripeptidic hydroxamic acids as inhibitors of procollagen C-proteinase” (Bioorg Med Chem Lett, 2000).

“And” between values parts separate entries of the source, which are not always exact repeats. Identical values can stand only once. Where a SMILES comes first, the peptide text is derived from it. [ ]: non-standard residue; d: D form. The star is where a group is joined. ξ: configuration not given here. ξW = NC(Cc1c[nH]c2ccccc12)C(=O)O; Cbz = O=C(OCc1ccccc1)*; ξT = CC(O)C(N)C(=O)O; NHOH = ON*

This assay concerns the target T1, Bone morphogenetic protein 1 (Homo sapiens, UniProt P13497).
T1 sequence (P13497 whole entry): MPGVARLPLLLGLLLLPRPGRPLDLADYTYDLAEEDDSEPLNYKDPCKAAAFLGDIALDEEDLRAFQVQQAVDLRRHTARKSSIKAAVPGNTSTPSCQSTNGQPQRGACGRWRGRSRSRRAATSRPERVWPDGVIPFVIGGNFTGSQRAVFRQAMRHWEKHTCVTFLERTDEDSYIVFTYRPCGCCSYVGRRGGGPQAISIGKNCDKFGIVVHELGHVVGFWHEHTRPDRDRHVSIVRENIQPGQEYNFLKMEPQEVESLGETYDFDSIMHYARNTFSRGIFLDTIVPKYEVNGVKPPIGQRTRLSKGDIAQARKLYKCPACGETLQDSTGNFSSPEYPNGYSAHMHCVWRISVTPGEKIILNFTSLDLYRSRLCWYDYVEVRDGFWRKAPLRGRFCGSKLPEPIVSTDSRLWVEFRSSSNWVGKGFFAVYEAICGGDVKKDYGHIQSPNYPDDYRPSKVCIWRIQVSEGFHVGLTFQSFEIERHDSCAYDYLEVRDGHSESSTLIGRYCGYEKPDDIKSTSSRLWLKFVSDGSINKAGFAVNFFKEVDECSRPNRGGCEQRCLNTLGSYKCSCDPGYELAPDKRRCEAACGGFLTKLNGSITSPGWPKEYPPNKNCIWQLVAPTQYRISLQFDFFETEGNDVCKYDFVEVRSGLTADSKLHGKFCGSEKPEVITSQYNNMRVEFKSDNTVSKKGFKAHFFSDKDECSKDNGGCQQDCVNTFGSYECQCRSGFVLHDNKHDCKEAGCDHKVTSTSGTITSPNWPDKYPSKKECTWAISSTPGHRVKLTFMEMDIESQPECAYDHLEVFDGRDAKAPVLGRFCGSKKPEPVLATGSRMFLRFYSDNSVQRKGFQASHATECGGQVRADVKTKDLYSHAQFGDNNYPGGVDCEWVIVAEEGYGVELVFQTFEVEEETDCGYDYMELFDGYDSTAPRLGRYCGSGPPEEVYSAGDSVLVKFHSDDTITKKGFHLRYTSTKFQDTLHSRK
Briefly: Inhibitory effect against Procollagen C-terminal proteinase.
Turning to `O=C(NC(Cc1c[nH]c2ccccc12)C(=O)NO)OCc1ccccc1` (stereo not drawn), half-maximal inhibition (IC50) required 67000 nM.

In the case of `CNC(=O)[C@H](CCC(N)=O)NC(=O)[C@H](CC(=O)O)CC(=O)NO`, the IC50 (in general, the concentration needed to halve the response being measured) was found to be 68000 nM.

Regarding `CC[C@@H](C)[C@@H](NC(=O)OCc1ccccc1)C(=O)N[C@H](Cc1ccccn1)C(=O)NO`, the IC50 is 220 nM.

With `O=C(CCCNC(=O)OCc1ccccc1)N[C@@H](Cc1c[nH]c2ccccc12)C(=O)NO`, half-maximal inhibition (IC50) was put at 19000 nM.

Turning to `CC[C@@H](C)[C@@H](NCN(Cc1ccc(F)cc1)C(=O)c1cccc(Cl)c1)C(=O)N[C@H](Cc1cscn1)C(=O)NO`, the half-maximal inhibitory concentration (IC50) was 53 nM.

As to `CC[C@H](C)[C@H](NS(=O)(=O)c1cc(C)c(Cl)cc1C)C(=O)N[C@@H](CNC(=O)OCc1ccccc1)C(=O)NO`, half-maximal inhibition (IC50) required 67 nM.

Turning to `CC[C@@H](C)[C@@H](NCN(Cc1ccc(F)cc1)C(=O)c1cccc(C)c1)C(=O)N[C@H](Cc1cscn1)C(=O)NO`, the IC50 was 110 nM.

The molecule `CC[C@H](C)[C@H](NS(=O)(=O)c1ccc(Br)c(Br)c1)C(=O)N[C@@H](CNC(=O)OCc1ccccc1)C(=O)NO` showed a 50% inhibitory concentration (IC50) of 26 nM.

On to `CC[C@H](C)[C@H](NS(=O)(=O)c1cc(Cl)ccc1Cl)C(=O)N[C@@H](CNC(=O)OCc1ccccc1)C(=O)NO`, for which the half-inhibitory concentration (IC50) stood at 65 nM.

`CC(=O)N[C@@H](Cc1ccc(O)cc1)C(=O)NCC(=O)NO` showed an IC50 of 280000 nM.

The molecule `CC[C@@H](C)[C@@H](NS(=O)(=O)C1=CCC(C)(Cl)C=C1C)C(=O)N[C@H](Cc1cscn1)C(=O)NO` (stereo partly drawn) displayed an IC50 of 43 nM.

The molecule `CC[C@@H](C)[C@@H](NC(=O)OCc1ccccc1)C(=O)N[C@H](Cc1ccc(Br)cc1)C(=O)NO` yielded an IC50 of 200 nM.

As to `CC(C)C(NC(=O)OCc1ccccc1)C(=O)N[C@H](Cc1c[nH]c2ccccc12)C(=O)NO` (stereo partly drawn), inhibition was half-maximal at 1900 nM (IC50).

For `CC[C@@H](C)[C@@H](NC(=O)OCc1ccccc1)C(=O)NC(Cc1ccccc1Cl)C(=O)NO` (stereo partly drawn), the half-inhibitory concentration (IC50) amounted to 190 nM.

`CCCC(NC(=O)OCc1ccccc1)C(=O)N[C@H](Cc1c[nH]c2ccccc12)C(=O)NO` (stereo partly drawn) showed a 50% inhibitory concentration (IC50) of 870 nM.

In turn, `CC[C@H](C)[C@H](NS(=O)(=O)c1cc(Br)c(Br)s1)C(=O)NC(Cc1cscn1)C(=O)NO` (stereo partly drawn) yielded an IC50 of 32 nM.

For `CC[C@@H](C)[C@@H](NS(=O)(=O)c1cc(Cl)c(Cl)cc1Cl)C(=O)N[C@H](Cc1cscn1)C(=O)NO`, the concentration for half-maximal inhibition (IC50) turned out to be 49 nM.

Take `CC[C@@H](C)[C@@H](NCN(Cc1ccc(F)cc1)C(=O)c1ccc(Br)cc1)C(=O)N[C@H](Cc1cscn1)C(=O)NO`: 89 nM corresponded to half-maximal inhibition (IC50).

On to `CC[C@@H](C)[C@H](NC(=O)C(Cc1ccc(F)cc1)NC(=O)OCc1ccccc1)C(=O)N[C@@H](Cc1cscn1)C(=O)NO` (stereo partly drawn), for which the IC50 turned out to be 78 nM.

`O=C(N[C@@H](Cc1ccccc1)C(=O)N[C@@H](Cc1c[nH]c2ccccc12)C(=O)NO)OCc1ccccc1` displayed an IC50 of 17000 nM.

Regarding `CC[C@@H](C)[C@H](NC(=O)C(Cc1c[nH]c2ccccc12)NC(=O)OCc1ccccc1)C(=O)N[C@@H](Cc1cscn1)C(=O)NO` (stereo partly drawn), the IC50 came out at 67 nM.

Molecule `CC[C@@H](C)[C@@H](NC(=O)OCc1ccc(Cl)c(Cl)c1)C(=O)N[C@H](Cc1cscn1)C(=O)NO` registered an IC50 of 73 nM.

For `CC[C@H](C)[C@@H](NC(=O)Nc1ccccc1Cl)C(=O)N[C@H](Cc1cc2ccccc2[nH]1)C(=O)NO`, inhibition was half-maximal at 5000 nM (IC50).

Consider `CC[C@@H](C)[C@@H](NCN(Cc1ccc(F)cc1)C(=O)c1ccc(F)cc1)C(=O)N[C@H](Cc1cscn1)C(=O)NO`, for which the midpoint of inhibition, the IC50, lay at 90 nM.

`CC[C@@H](C)[C@@H](NC(=O)OCc1ccccc1)C(=O)N[C@H](Cc1cnc[nH]1)C(=O)NO`: the IC50 stood at 250 nM.

Take `O=C(NC(C(=O)N[C@H](Cc1c[nH]c2ccccc12)C(=O)NO)c1ccccc1)OCc1ccccc1` (stereo partly drawn): the IC50 turned out to be 1200 nM.

`CC[C@@H](C)[C@@H](NCN(Cc1ccc(F)cc1)C(=O)c1ccc(C(C)(C)C)cc1)C(=O)N[C@H](Cc1cscn1)C(=O)NO`: it took 140 nM to reach half-maximal inhibition (IC50).

The molecule `CC[C@@H](C)[C@H](NC(=O)C(COCc1ccccc1)NC(=O)OCc1ccccc1)C(=O)N[C@@H](Cc1cscn1)C(=O)NO` (stereo partly drawn) showed an IC50 of 78 nM.

`CC[C@@H](C)[C@@H](NC(=O)OCc1ccccc1)C(=O)NCC(NC(=O)OCc1ccccc1)C(=O)NO` (stereo partly drawn) registered an IC50 of 61 nM.

Molecule `CC[C@@H](C)[C@@H](NS(=O)(=O)c1ccc(Br)c(Br)c1)C(=O)N[C@H](Cc1cscn1)C(=O)NO` came in with an IC50 of 30 nM.

`CC[C@@H](C)[C@@H](NC(=O)OCc1ccccc1)C(=O)N[C@H](Cc1ccc(Br)s1)C(=O)NO` displayed an IC50 of 210 nM.

As for `CNC(=O)C1CCCN1C(=O)[C@H](CCC(N)=O)NC(=O)[C@H](CC(=O)O)CC(=O)NO` (stereo partly drawn), it took 22000 nM to reach half-maximal inhibition (IC50).

The molecule `CC[C@H](C)[C@H](NS(=O)(=O)c1cc(Br)c(Br)s1)C(=O)N[C@@H](CNC(=O)OCc1ccccc1)C(=O)NO` came in with an IC50 of 52 nM.

`CC[C@@H](C)[C@H](NC(=O)C(CCSC)NC(=O)OCc1ccccc1)C(=O)N[C@@H](Cc1cscn1)C(=O)NO` (stereo partly drawn) came in with an IC50 of 43 nM.

`O=C(N[C@H](Cc1ccc(O)cc1)C(=O)N[C@@H](Cc1c[nH]c2ccccc12)C(=O)NO)OCc1ccccc1`: the IC50 turned out to be 20000 nM.

With `CC[C@@H](C)[C@@H](NC(=O)OCc1ccccc1)C(=O)NC(Cc1ccc(OC(C)(C)C)cc1)C(=O)NO` (stereo partly drawn), the IC50 worked out at 130 nM.

As to `CC[C@H](C)[C@@H](NC(=O)NCCc1ccccc1)C(=O)N[C@H](Cc1cc2ccccc2[nH]1)C(=O)NO`, the IC50 came to 3600 nM.

`CC[C@@H](C)[C@@H](NS(=O)(=O)c1cc(Cl)ccc1Cl)C(=O)N[C@H](Cc1cscn1)C(=O)NO` registered an IC50 of 29 nM.

Consider `CC[C@H](C)[C@@H](Nc1cccc(C(F)(F)F)c1)C(=O)N[C@H](Cc1cc2ccccc2[nH]1)C(=O)NO`, for which the IC50 amounted to 2800 nM.

As for `CC[C@@H](C)[C@@H](NC(=O)OCc1cc(Cl)cc(Cl)c1)C(=O)N[C@H](Cc1cscn1)C(=O)NO`, the IC50 was 150 nM.

`CC[C@@H](C)[C@@H](NC(=O)OCc1cccc(C(F)(F)F)c1)C(=O)N[C@H](Cc1cscn1)C(=O)NO` returned an IC50 of 90 nM.

Turning to `O=C(N[C@H](Cc1ccccc1)C(=O)N[C@@H](Cc1c[nH]c2ccccc12)C(=O)NO)OCc1ccccc1`, 18000 nM corresponded to half-maximal inhibition (IC50).

Molecule `CC[C@@H](C)[C@H](NC(=O)C(CC(C)C)NC(=O)OCc1ccccc1)C(=O)N[C@@H](Cc1cscn1)C(=O)NO` (stereo partly drawn) showed an IC50 of 110 nM.

Molecule `CC[C@H](C)[C@@H](NC(=O)Nc1cc(Cl)cc(Cl)c1)C(=O)N[C@H](Cc1cc2ccccc2[nH]1)C(=O)NO` returned an IC50 of 5100 nM.

In turn, `CC[C@H](C)[C@@H](NC(=O)OCc1ccccc1)C(=O)N[C@H](Cc1c[nH]c2ccccc12)C(=O)NO` showed an IC50 of 730 nM.

The molecule `CC[C@H](C)[C@@H](NC(=O)Nc1ccccc1[N+](=O)[O-])C(=O)N[C@H](Cc1cc2ccccc2[nH]1)C(=O)NO` yielded an IC50 of 2100 nM.

Molecule `CC[C@@H](C)[C@@H](NC(=O)OCc1ccccc1)C(=O)NCC(NCc1ccccc1)C(=O)NO` (stereo partly drawn) registered an IC50 of 94 nM.

Molecule `CC[C@H](C)[C@@H](Nc1ccc(Cl)c(Cl)c1)C(=O)N[C@H](Cc1cc2ccccc2[nH]1)C(=O)NO` showed an IC50 of 750 nM.

`O=C(O)CCC(NC(=O)OCc1ccccc1)C(=O)N[C@H](Cc1c[nH]c2ccccc12)C(=O)NO` (stereo partly drawn) returned a 50% inhibitory concentration (IC50) of 3000 nM.

Turning to `CC[C@@H](C)[C@@H](NC(=O)OCc1ccccc1)C(=O)NC(Cc1ccc(-c2ccccc2)cc1)C(=O)NO` (stereo partly drawn), the IC50 came out at 200 nM.

On to `CC[C@@H](C)[C@@H](NC(=O)OCc1ccccc1)C(=O)N[C@H](Cc1ccc([N+](=O)[O-])cc1)C(=O)NO`, for which the IC50 is 200 nM and 220 nM.

As to `CC[C@@H](C)[C@@H](NC(=O)OCc1ccccc1Br)C(=O)N[C@H](Cc1cscn1)C(=O)NO`, the IC50 amounted to 78 nM.

`CC[C@@H](C)[C@@H](NCN(Cc1ccc(F)cc1)C(=O)c1ccc(Cl)cc1)C(=O)N[C@H](Cc1cscn1)C(=O)NO` yielded an IC50 of 50 nM.

As to `CC[C@@H](C)[C@H](NC(=O)C(Cc1ccccc1)NC(=O)OCc1ccccc1)C(=O)N[C@@H](Cc1cscn1)C(=O)NO` (stereo partly drawn), half-maximal inhibition (IC50) required 44 nM.

With `CC(=O)N[C@@H](CCCNC(=N)N)C(=O)N[C@@H](C)C(=O)NO` (Ac-Arg-Ala-{NHOH}), the half-inhibitory concentration (IC50) was above 800000 nM.

Consider `CC(=O)N[C@@H](Cc1ccc(O)cc1)C(=O)N[C@@H](Cc1ccc(O)cc1)C(=O)NCC(=O)NO` (Ac-Tyr-Tyr-Gly-{NHOH}), for which the IC50 came to 65000 nM.

In turn, `CC(O)C(NC(=O)OCc1ccccc1)C(=O)N[C@@H](Cc1c[nH]c2ccccc12)C(=O)NO` (stereo partly drawn) (Cbz-[ξT]-Trp-{NHOH}) displayed an IC50 of 15000 nM.

As for `O=C(NC(Cc1c[nH]c2ccccc12)C(=O)N[C@@H](Cc1c[nH]c2ccccc12)C(=O)NO)OCc1ccccc1` (stereo partly drawn) (Cbz-[ξW]-Trp-{NHOH}), the IC50 amounted to 19000 nM.
